{"source": "patent US20210330611A1", "about": "“THERAPY FOR NEUROLOGICAL DISEASES/DISORDERS” (priority 2020, published 2021)", "key": {"primary rat microglia [1]": {"tested_on": "primary rat microglia", "assay": "Cell toxicity (dead cells, size <150 μm2) in coated fibrin (cFib) assay;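 for Fibrin % cell toxicity: share of dead cells sized under 150 µm2 at 10 µM in fibrin-stimulated microglia HTS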", "settings": "for Fibrin % cell toxicity: primary microglia HTS"}, "[2]": {"tested_on": "fibrin-induced microglia activation", "assay": "Image-based assay of fibrin-induced microglia activation (HTS and dose response)", "type": "cell-based, rat", "settings": "for inhibition at 10 µM: read-out: Fibrin % inhibition"}, "[3]": {"tested_on": "LPS-induced microglia activation", "assay": "Image-based assay of LPS-induced microglia activation (HTS and dose response)", "type": "cell-based, rat"}, "[4]": {"tested_on": "fibrin- and LPS-induced microglia activation", "assay": "cells", "type": "cell-based, rat"}, "primary rat microglia [5]": {"tested_on": "primary rat microglia", "settings": "rat"}, "[6]": {"settings": "fibrin assay, dead cells (size <150 μm2), compounds at 10 μM"}, "[7]": {"settings": "Rattus norvegicus, Microglia, primary microglia HTS, LPS stimulation, compounds at 10 μM; read-out: LPS % inhibition"}, "[8]": {"settings": "primary microglia HTS, LPS stimulation, compounds at 10 μM; 10 µM"}, "[9]": {"settings": "classification by fibrin and LPS inhibition, HTS at 10 μM"}, "[10]": {"settings": "quadrant by fibrin and LPS inhibition in HTS of 1907 compounds"}, "[11]": {"settings": "fibrin assay, dead cells (size <150 μm2)"}, "[12]": {"settings": "quadrant by fibrin and LPS inhibition, HTS at 10 μM"}, "[13]": {"settings": "fibrin stimulation, cell size <150 μm2 as marker of toxicity"}, "[14]": {"settings": "Rattus norvegicus, Microglia, 48 h; read-out: LPS % inhibition"}, "[15]": {"settings": "classification by fibrin and LPS inhibition in HTS"}, "[16]": {"settings": "Rattus norvegicus, Microglia, primary microglia HTS, fibrin stimulation, compounds at 10 μM"}, "[17]": {"settings": "Rattus norvegicus, Microglia, 48 h, read-out: LPS % inhibition"}}, "note": "pIC50: −log10 of the molar value. “And” between values parts separate entries of the source, which are not always exact repeats. Equal values may be shown once. Read-outs that look alike come from different tables or passages of the source."}
{"smiles": "CN1C[C@H](C(=O)N[C@]2(C)O[C@@]3(O)[C@@H]4CCCN4C(=O)[C@H](Cc4ccccc4)N3C2=O)C[C@@H]2c3cccc4[nH]cc(c34)C[C@H]21", "note": "[Dihydroergotamine]", "values": [{"measurement": "Fibrin % cell toxicity", "setting": "primary rat microglia [1]; [6]", "result": "1% and 0%"}, {"measurement": "Fibrin % inhibition", "setting": "[2]; primary microglia HTS, fibrin stimulation, compounds at 10 μM, 10 µM", "result": "7% and −3%"}, {"measurement": "inhibition at 10 µM", "setting": "[3]; [7]", "result": 39, "unit": "%"}, {"measurement": "LPS % inhibition", "setting": "[3]; [8]", "result": 22, "unit": "%"}, {"measurement": "Quadrant (FIG. 5b)", "setting": "[4]; [9]", "result": "Q4"}]}
{"smiles": "CC(C)=CCc1c2c(c3occ(-c4ccc(O)c(O)c4)c(=O)c3c1O)C=CC(C)(C)O2", "note": "[pomiferin]", "values": [{"measurement": "IC50", "setting": "primary rat microglia [1]; Rattus norvegicus, Microglia, read-out: dead_IC50 (uM), Table 7, fibrin or LPS assay not specified", "result": 3.45, "unit": "µM"}, {"measurement": "pIC50", "setting": "[2]; Rattus norvegicus, Microglia, Table 7, read-out: fib_IC50", "result": 6.60}, {"measurement": "pIC50", "setting": "[3]; Rattus norvegicus, Microglia, Table 7; read-out: LPS_IC50", "result": 6.91}]}
{"smiles": "CCC(=O)c1c(O)cc(O)cc1O", "note": "[Flopropione]", "values": [{"measurement": "Fibrin % cell toxicity", "setting": "primary rat microglia [1]; fibrin stimulation, toxicity = cell size <150 μm2", "result": 1, "unit": "%"}, {"measurement": "inhibition at 10 µM", "setting": "[2]; Rattus norvegicus, Microglia, primary microglia HTS, fibrin stimulation, activation = cell size >800 μm2", "result": -35, "unit": "%"}, {"measurement": "inhibition at 10 µM", "setting": "[3]; Rattus norvegicus, Microglia, 48 h, primary microglia HTS, LPS stimulation, activation = cell size >800 μm2; read-out: LPS % inhibition", "result": 10, "unit": "%"}, {"measurement": "Quadrant (FIG. 5b)", "setting": "[4]; [10]", "result": "Q4"}]}
{"smiles": "CC(C)NCC(O)COc1cccc2ccccc12", "note": "(stereo not shown) [1-(Isopropylamino)-3-(1-Naphthyloxy)-2-Propanol]", "values": [{"measurement": "LPS % cell toxicity", "setting": "primary rat microglia [5]", "result": 0, "unit": "%"}]}
{"smiles": "C#C[C@]1(OC(C)=O)CC[C@H]2[C@@H]3CCC4=C[C@@H](OC(C)=O)CC[C@@H]4[C@H]3CC[C@@]21C", "note": "[Ethynodiol Diacetate]", "values": [{"measurement": "Fibrin % cell toxicity", "setting": "primary rat microglia [1]; [6]", "result": 1, "unit": "%"}, {"measurement": "Quadrant (FIG. 5b)", "setting": "[4]; [9]", "result": "Q4"}]}
{"smiles": "O=C1CN2Cc3c(ccc(Cl)c3Cl)N=C2N1", "note": "[Anagrelide]", "values": [{"measurement": "Fibrin % cell toxicity", "setting": "primary rat microglia [1]; [11]", "result": 1, "unit": "%"}, {"measurement": "Quadrant (FIG. 5b)", "setting": "[4]; [12]", "result": "Q4"}]}
{"smiles": "C[C@@H]1CN(c2c(F)c(N)c3c(=O)c(C(=O)O)cn(C4CC4)c3c2F)C[C@H](C)N1", "note": "[Sparfloxacin]", "values": [{"measurement": "Fibrin % cell toxicity", "setting": "primary rat microglia [1]; [13]", "result": "0% and 1%"}, {"measurement": "inhibition at 10 µM", "setting": "[3]; [14]", "result": 11, "unit": "%"}, {"measurement": "Quadrant (FIG. 5b)", "setting": "[4]; [15]", "result": "Q4"}]}
{"smiles": "C[C@@H]1[C@H](O)[C@@H](C)/C=C/C=C/C=C/C=C/C=C/C=C/C=C/[C@H](O[C@@H]2O[C@H](C)[C@@H](O)[C@H](N)[C@@H]2O)C[C@@H]2O[C@](O)(C[C@@H](O)C[C@@H](O)[C@H](O)CC[C@@H](O)C[C@@H](O)CC(=O)O[C@H]1C)C[C@H](O)[C@H]2C(=O)O", "note": "[Amphotericin B]", "values": [{"measurement": "Fibrin % cell toxicity", "setting": "primary rat microglia [1]; [11]", "result": 1, "unit": "%"}, {"measurement": "Quadrant (FIG. 5b)", "setting": "[4]; [12]", "result": "Q4"}]}
{"smiles": "COc1ccc2[nH]c([S+]([O-])Cc3ncc(C)c(OC)c3C)nc2c1", "note": "(stereo not shown) [Esomeprazole; Omeprazole]", "values": [{"measurement": "Fibrin % cell toxicity", "setting": "primary rat microglia [1]; [6]", "result": "0% and 1%"}, {"measurement": "LPS % inhibition", "setting": "[3]; [8]", "result": "24% and 13%"}, {"measurement": "Quadrant (FIG. 5b)", "setting": "[4]; [9]", "result": "Q4"}]}
{"smiles": "CC(N)C12CC3CC(CC(C3)C1)C2", "note": "(stereo not shown) [Rimantadine]", "values": [{"measurement": "Fibrin % cell toxicity", "setting": "primary rat microglia [1]; [11]", "result": 93, "unit": "%"}, {"measurement": "Fibrin % cell toxicity", "setting": "primary rat microglia [1]; [13]", "result": 0, "unit": "%"}, {"measurement": "inhibition at 10 µM", "setting": "[2]; Rattus norvegicus, Microglia, primary microglia HTS, fibrin stimulation, cell size >800 μm2 as marker of activation", "result": -19, "unit": "%"}, {"measurement": "inhibition at 10 µM", "setting": "[2]; [16]", "result": 106, "unit": "%"}, {"measurement": "inhibition at 10 µM", "setting": "[3]; [14]", "result": 2, "unit": "%"}, {"measurement": "inhibition at 10 µM", "setting": "[3]; [7]", "result": 106, "unit": "%"}, {"measurement": "Quadrant (FIG. 5b)", "setting": "[4]; [15]", "result": "Q4"}, {"measurement": "Quadrant (FIG. 5b)", "setting": "[4]; [12]", "result": "Q2"}]}
{"smiles": "CCN(CC)C(=O)/C(C#N)=C/c1cc(O)c(O)c([N+](=O)[O-])c1", "note": "[Entacapone]", "values": [{"measurement": "Fibrin % cell toxicity", "setting": "primary rat microglia [1]; [6]", "result": 1, "unit": "%"}, {"measurement": "inhibition at 10 µM", "setting": "[3]; [7]", "result": 11, "unit": "%"}, {"measurement": "LPS % inhibition", "setting": "[3]; [8]", "result": 17, "unit": "%"}, {"measurement": "Quadrant (FIG. 5b)", "setting": "[4]; [9]", "result": "Q4"}]}
{"smiles": "O=C(O)CCCCC1CCSS1", "note": "(stereo not shown) [Lipoic Acid]", "values": [{"measurement": "Fibrin % inhibition", "setting": "[2]; primary microglia HTS, fibrin stimulation, activation = cell size >800 μm2", "result": "−38", "unit": "%"}, {"measurement": "LPS % inhibition", "setting": "[3]; primary microglia HTS, LPS stimulation, activation = cell size >800 μm2", "result": 39, "unit": "%"}, {"measurement": "Quadrant (FIG. 5b)", "setting": "[4]; [10]", "result": "Q4"}]}
{"smiles": "Cc1cc(/C=C/c2ccc3cc(N(C)C)ccc3[n+]2C)c(C)n1-c1ccccc1", "note": "[Pyrvinium]", "values": [{"measurement": "inhibition at 10 µM", "setting": "[2]; Rattus norvegicus, Microglia", "result": 113, "unit": "%"}, {"measurement": "inhibition at 10 µM", "setting": "[3]; Rattus norvegicus, Microglia, read-out: LPS % inhibition", "result": 115, "unit": "%"}, {"measurement": "Quadrant (FIG. 5b)", "setting": "[4]", "result": "Q2"}]}
{"smiles": "O=C(O)c1cccnc1", "note": "[Niacin]", "values": [{"measurement": "inhibition at 10 µM", "setting": "[2]; Rattus norvegicus, Microglia", "result": 8, "unit": "%"}, {"measurement": "inhibition at 10 µM", "setting": "[3]; [17]", "result": 13, "unit": "%"}, {"measurement": "Quadrant (FIG. 5b)", "setting": "[4]", "result": "Q4"}]}
{"smiles": "C=C(C)[C@H]1CC=C(C)CC1", "note": "[D-limonene]", "values": [{"measurement": "Fibrin % inhibition", "setting": "[2]; primary microglia HTS, fibrin stimulation, compounds at 10 μM", "result": "−19", "unit": "%"}, {"measurement": "LPS % inhibition", "setting": "[3]; primary microglia HTS, LPS stimulation, compounds at 10 μM", "result": 11, "unit": "%"}, {"measurement": "Quadrant (FIG. 5b)", "setting": "[4]; [9]", "result": "Q4"}]}
{"smiles": "CC(C)(C(=O)O)c1ccc(C(O)CCCN2CCC(C(O)(c3ccccc3)c3ccccc3)CC2)cc1", "note": "(stereo not shown) [Fexofenadine]", "values": [{"measurement": "inhibition at 10 µM", "setting": "[2]; Rattus norvegicus, Microglia", "result": 13, "unit": "%"}, {"measurement": "inhibition at 10 µM", "setting": "[3]; [17]", "result": 14, "unit": "%"}, {"measurement": "Quadrant (FIG. 5b)", "setting": "[4]", "result": "Q4"}]}
{"smiles": "O=C1O[C@H]([C@@H](O)CO)C(O)=C1O", "note": "[Ascorbic Acid]", "values": [{"measurement": "inhibition at 10 µM", "setting": "[2]; [16]", "result": -8, "unit": "%"}, {"measurement": "inhibition at 10 µM", "setting": "[3]; [7]", "result": 12, "unit": "%"}, {"measurement": "Quadrant (FIG. 5b)", "setting": "[4]; [12]", "result": "Q4"}]}
